# Measurements: patent US10363230B2, “6-shogaol derivatives and activities thereof” (North Carolina Agricultural and Technical State University, priority 2017, dated 2019)
# Entries after “also recorded” stand apart in the source; their conditions may differ.
# Columns and labels:
# [1] = Biotransformation of xenobiotics in zebrafish embryos (LC/MS); format: in vivo; details: 5 μM in incubation medium, 8 hpf to 24 hpf
# Experimental: Fifty zebrafish embryos at the 8 hour-post-fertilization (hpf) stage were incubated at 28.5° C. in 0.3× Danieau's solution (19.3 mM NaCl, 0.23 mM KCl, 0.13 mM MgSO4, 0.2 mM Ca(NO3)2, 1.7 mM HEPES, pH 7.0) with or without 5 μM 18 and 25-27, respectively. At 24 hpf, embryos were dechorionated manually and the chorions were carefully removed one by one from the culture medium. The zebrafish embryos were harvested and kept at −80° C. till analyzed by LC/MS.
# 200 μL Sodium acetate buffer solution (pH 5.0) was added to 50 zebrafish embryos. Samples were homogenized for 90 s by an Omni Bead Ruptor Homogenizer (Kennesaw, Ga., United States of America). 10 μL 10% ascorbic acid and 300 μL sodium acetate buffer were added to the homogenates. The mixture was incubated in the presence of β-glucuronidase (250 U) and sulfatase (3 U) at 37° C. for 45 min, and then 600 μL MeOH with 1% acetic acid was added. The resulting mixture was vortexed for 30 s and then centrifuged at 17000 g for 10 min. The supernatant was removed and evaporated under a gentle stream of nitrogen. The residue was reconstituted in 150 μL 90% MeOH with 0.2% acetic acid (AA), and 10 μL was analyzed directly by LC/MS.
# (§1) LC/MS analysis was carried out with a Thermo-Finnigan Spectra System, which consisted of an Accela high speed MS pump, an Accela refrigerated autosampler, and an LCQ Fleet ion trap mass detector (Thermo Electron, San Jose, Calif., United States of America) incorporated with an electrospray ionization (ESI) interface. A Gemini-NX C18 column (150 mm×4.6 mm i.d., 5 μm; Phenomenex, Torrance, Calif., United States of America) was used for separation at a flow rate of 0.3 mL/min. The column was eluted with 100% A (5% aqueous methanol with 0.2% formic acid) for 1 min, followed by linear increases in B (95% aqueous methanol with 0.2% formic acid) to 55% from 1 to 4 min, to 85% from 4 to 25 min, then to 100% B from 25 to 30 min, and then with 100% B from 30 to 35 min. The column was then re-equilibrated with 100% A for 5 min. The LC eluent was introduced into the ESI interface. The positive ion polarity mode was set for the ESI source with the voltage on the ESI interface maintained at approximately 4.6 kV. Nitrogen gas was used as the sheath gas and auxiliary gas. Optimized source parameters, including capillary temperature (260° C.), sheath gas flow rate (31 arbitrary units), auxiliary gas flow rate (16 units), tube lens (34 V), and capillary voltage 9 V, were tuned using authentic samples. The collision-induced dissociation (CID) was conducted with an isolation width 2 Da and normalized collision energy of 35 for MS^2. The mass range was measured from 100 to 800 m/z. Data acquisition was performed with Xcalibur version 2.0 (Thermo Electron, San Jose, Calif., United States of America).
# heme oxygenase-1 (HO-1) = test: Western blotting of HO-1 expression in CCD 841 CoN cells; format: cell-based, human
# Experimental: Human normal colonic epithelial cells (CCD 841 CoN) were grown in Eagle's Minimum Essential Medium with 10% fetal bovine serum and 1% penicillin/streptomycin, and maintained at 37° C. in a 100% humidified atmosphere of 5% CO2 and 95% air. Fresh growth medium was added to the cells every two days until confluent. Cells were planted in 145×20 mm flat-bottomed tissue culture dishes and growth to 70-80% confluence and then treated with compound 27 for various doses and time points. At the end of incubation period, cell lysates were prepared in ice-cold Cell Lysis Buffer (Cell Signaling, Danvers, Mass., United States of America) with 1% protease inhibitor cocktail and 1% phenylmethylsulfonyl fluoride (Sigma, St. Louis, Mo., United States of America). Protein concentrations were measured using BCA Protein Assay Kit (Thermo Scientific, Rockford, Ill., United States of America). […] The bound complexes were detected with SuperSignal Chemiluminescent Substract (Thermo Scientific, Rockford, Ill., United States of America). The immunoblot bands were quantified by densitometry analysis, and the ratio to β-actin was calculated and presented.
# [2] = Cysteine conjugates in mouse urine after oral gavage (LC/MS); format: in vivo; details: oral gavage 200 mg/kg, urine collected in 24 h
# Experimental: as §1, with “Optimized source parameters, including capillary temperature (260° C.), sheath gas flow rate (31 arbitrary units), auxiliary gas flow rate (16 units), tube lens (34 V), and capillary voltage 9 V, were tuned using authentic samples. The collision-induced dissociation (CID) was conducted with an isolation width 2 Da and normalized collision energy of 35 for MS^2.” left out, “Data acquisition was performed with Xcalibur version 2.0 (Thermo Electron, San Jose, Calif., United States of America).” left out
# Enzymatic deconjugation of mouse urine was performed as described previously with slight modifications. […] The resulting suspension was centrifuged at 17,000 g for 5 min, and 10 μL of supernatant was analyzed directly by LC/MS.
smiles,measurement,setting,value
CCCCCCCC(=O)/C=C/c1ccc(O)c(O)c1 [Compound 27],Cysteine conjugates (metabolites) detected in zebrafish embryos,[1],"four cysteine conjugates 36, 36a, 37, and 37b"
same,"HO-1 protein expression, time dependence","heme oxygenase-1 (HO-1); CCD 841 CoN cells, 10 μM for 3, 6, 12 and 24 h, vs control, p<0.05 for all time points",significantly increased HO-1 expression; also recorded: increased HO-1 expression in a time-dependent manner
same,"HO-1 protein expression, dose dependence","heme oxygenase-1 (HO-1); CCD 841 CoN cells, 5, 10 and 20 μM for 24 h, vs untreated control, p<0.05 for all concentrations",significantly increased HO-1 protein expression; also recorded: increased HO-1 expression in a dose-dependent manner
same,Cysteine conjugates (metabolites) detected in mouse urine,[2],"conjugate 36 and its reduced form 36a, three additional conjugates 37, 37a, and 37b"
